The source of these data is patent US11299480B2, “2-arylsulfonamido-N-arylacetamide derivatized STAT3 inhibitors” (University of Hawaii, priority 2017, dated 2022).

Data set [1] concerns MCF7. The data set is described as follows: CyQuant cell viability assay, MCF7. Format: cell-based, human. The settings on record: 72 h; for cell viability: MCF7 (no aberrantly-active Stat3), CyQuant. Here is the method: (§1) FIG. 6. Effects of select compounds of the present invention on cell viability. […] Cells were first grown in 6-well plates then were treated once with 0-10 μM of the indicated compounds for 72 h. Viable cells were assayed using CyQuant cell proliferation kit and plotted as % cell viability against concentration. Control (0) represents 0.05% DMSO-treated cells. Values, mean ± S.D. of 2-3 independent determinations.
(§2) Cells in 6-well or 96-well plates were treated with or without compounds for the indicated concentrations and time, and subjected to MTT assay or CyQuant cell proliferation assay (Invitrogen/ThermoFisher Scientific), or harvested and the viable cells were counted by trypan blue exclusion with phase-contrast microscopy.
(§3) Constitutive Stat3 activity promotes tumor cell growth and proliferation and survival (Darnell J E (2005) Nat Med. 11:595-6; Bowman T, et al., (2000) Oncogene 19:2474-2488). Some of the compounds of the present invention were tested against tumor cells harboring constitutively-active Stat3.

Data set [2] relates to MDA-MB-231. Nature of the data set: CyQuant cell viability assay, MDA-MB-231. Format: cell-based, human. Particulars: MDA-MB-231, CyQuant, 0-10 μM, 72 h. Here is the method:
as §1, §2, §3

The subject of data set [3] is pY705Stat3. The data set is described as follows: Constitutive Stat3 tyrosine phosphorylation, immunoblot, MDA-MB-231 cells. Format: cell-based, human. Here is the method: (§4) FIG. 3. Effects of select compounds of the present invention on Stat3 DNA-binding activity and Stat3 tyrosine phosphorylation in cells. (FIG. 3A) EMSA analysis of Stat3 DNA-binding activity in nuclear extracts of equal total protein prepared from cells treated with DMSO (0 as control, Con), 5 or 10 μM of compounds for 1-34 h. Positions of Stat3:DNA complexes in gel are labeled. […] Positions of Stat3:DNA complexes or proteins in gel are shown; control (0 or Con) lane represents whole-cell lysates or nuclear extracts prepared from 0.05% DMSO-treated cells. […] Data are representative of 2-3 independent determinations.
(§5) All antibodies tested were purchased from Cell Signaling Technology.
(§6) Altogether, the new analogs show strong, albeit variable degrees of inhibition of constitutive Stat3 DNA-binding activity and Tyr phosphorylation in human tumor cells.

Data set [4] has as its system MDA-MB-468. The data set is described as follows: CyQuant cell viability assay, MDA-MB-468. It is filed as cell-based, human. The settings on record: MDA-MB-468, CyQuant, 0-10 μM, 72 h. Here is the method:
as §1, §2, §3

In data set [5] the target is Stat3 (Mus musculus, UniProt P42227). Format: biochemical. The method, then: FIG. 1. Effect of select compounds of the present invention on Stat3 DNA-binding activity in vitro. […] Positions of Stat3:DNA complexes in gel are labeled; control lanes (0) represent nuclear extracts pre-treated with 10% DMSO.
Except where indicated, nuclear extracts were pre-incubated with compound for 30 min at room temperature prior to incubation with the radiolabeled probe for 30 min at 30° C. before subjecting to EMSA analysis. Where appropriate, bands corresponding to Stat3:DNA complexes were scanned and quantified for each concentration of compound using ImageJ and plotted as percent of control (DMSO) against concentration of compound, from which the IC50 values were derived.

In data set [6] the test system is pY705Stat3. Nature of the data set: Constitutive Stat3 tyrosine phosphorylation, immunoblot, MDA-MB-468 cells. It is filed as cell-based, human. The method, then:
as §4, §5, §6
Background: Immunoblotting shows a protein as a band on a membrane.

The test system of data set [7] is Stat1. Nature of the data set: Stat1 DNA-binding activity in vitro, EMSA (MGFe probe). Particulars: 10 μM or 0-30 μM compound. Format: biochemical. The text has this:
FIG. 2. Effects of select compounds of the present invention on Stat1 and Stat5 DNA-binding activity. […] Positions of Stat:DNA complexes in gel are labeled; control lanes (0 or Con) represent nuclear extracts pre-treated with 10% DMSO. Data are representative of 1-3 independent determinations. […] Where appropriate, bands corresponding to Stat3:DNA complexes were scanned and quantified for each concentration of compound using ImageJ and plotted as percent of control (DMSO) against concentration of compound, from which the IC50 values were derived. In order to determine the specificity of select new analogs active against Stat3 activity, the inventors investigated the effects on the inhibition of other STAT family members, including Stat1 and Stat5 DNA-binding activity in vitro.
In general terms: A gel shift assay detects complexes by their altered migration in electrophoresis.

Data set [8] relates to MDA-MB-231. Nature of the data set: Cell growth, trypan blue exclusion/phase-contrast microscopy, MDA-MB-231. Format: cell-based, human. The method, then: (§7) FIG. 5. Effects of select compounds of the present invention on cell viability, growth, colony survival and migration in vitro. […] Cell numbers were counted by trypan blue exclusion/phase-contrast microscopy every […], and cell growth curve was plotted.
as §2, §3

Data set [9] deals with NIH3T3 mouse fibroblasts. The data set is described as follows: Cell growth, trypan blue exclusion/phase-contrast microscopy, NIH3T3. It is filed as cell-based. The settings on record: NIH3T3 (no aberrantly-active Stat3), trypan blue exclusion, 72 h. The method, then: as §7, §2, §3
Data set [10] deals with Stat5. The data set is described as follows: Stat5 DNA-binding activity in vitro, EMSA (MGFe probe). Format: biochemical. Particulars: 10 μM or 0-30 μM compound. The text has this:
FIG. 2. […] Positions of Stat:DNA complexes in gel are labeled; control lanes (0 or Con) represent nuclear extracts pre-treated with 10% DMSO. […] Where appropriate, bands corresponding to Stat3:DNA complexes were scanned and quantified for each concentration of compound using ImageJ and plotted as percent of control (DMSO) against concentration of compound, from which the IC50 values were derived.

The test system of data set [11] is pERK1/2. Nature of the data set: Stat3-independent signaling, immunoblot of pERK1/2, MDA-MB-231 cells. It is filed as cell-based, human. Particulars: MDA-MB-231, 5 μM, 24 h treatment.
Excerpt: (§8) FIG. 4. Effects of select compounds of the present invention on Stat3-independent signal transduction events. […] Positions of proteins in gel are labeled; control lane (Con) represents whole-cell lysate prepared from 0.05% DMSO-treated cells.
as §5, §6

The test system of data set [12] is pSrc. Nature of the data set: Stat3-independent signaling, immunoblot of pSrc, MDA-MB-231 cells. Format: cell-based, human. The settings on record: MDA-MB-231, 5 μM, 24 h treatment.
Excerpt: as §8, §5, §6

For data set [13], the system named is pJak2. The data set is described as follows: Stat3-independent signaling, immunoblot of pJak2, MDA-MB-231 cells. It is filed as cell-based, human. Particulars: MDA-MB-231, 5 μM, 24 h treatment.
Excerpt: as §8, §5, §6

Where [14] appears, read: EMSA, read-out: IC50, inhibition of Stat3 DNA-binding activity in vitro.
Where [15] appears, read: Stat3 DNA-binding activity in vitro, nuclear extracts pre-incubated with compound 30 min at room temperature, hSIE probe, read-out: EMSA IC50.

Like-named read-outs stand apart in the source and are kept apart here.

Chain of Stat3 (P42227 2-770 limits assumed): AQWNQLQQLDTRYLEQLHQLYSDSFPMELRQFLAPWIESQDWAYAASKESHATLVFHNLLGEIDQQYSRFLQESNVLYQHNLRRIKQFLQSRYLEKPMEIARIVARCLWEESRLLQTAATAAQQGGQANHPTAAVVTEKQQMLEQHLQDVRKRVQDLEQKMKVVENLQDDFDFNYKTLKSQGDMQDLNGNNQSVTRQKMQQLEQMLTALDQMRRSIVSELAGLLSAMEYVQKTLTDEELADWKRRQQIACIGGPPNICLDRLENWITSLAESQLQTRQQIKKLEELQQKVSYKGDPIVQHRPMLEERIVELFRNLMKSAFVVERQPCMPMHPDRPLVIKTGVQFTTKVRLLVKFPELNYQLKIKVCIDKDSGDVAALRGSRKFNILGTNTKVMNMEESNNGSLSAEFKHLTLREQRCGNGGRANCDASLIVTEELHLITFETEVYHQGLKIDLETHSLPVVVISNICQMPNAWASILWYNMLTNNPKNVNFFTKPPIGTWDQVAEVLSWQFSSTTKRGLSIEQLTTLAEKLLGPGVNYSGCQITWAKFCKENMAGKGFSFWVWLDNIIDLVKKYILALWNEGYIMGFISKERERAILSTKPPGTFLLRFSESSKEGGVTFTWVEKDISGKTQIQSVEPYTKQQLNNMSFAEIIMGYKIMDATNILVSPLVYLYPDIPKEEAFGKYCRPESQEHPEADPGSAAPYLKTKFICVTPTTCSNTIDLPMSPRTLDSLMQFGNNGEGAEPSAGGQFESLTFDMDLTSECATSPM

Usually IC50 stands for the concentration at which inhibition is half-maximal. Consider `O=C(O)c1ccc(N(Cc2ccc(C3CCCCC3)cc2)C(=O)[C@H]2CCCN2S(=O)(=O)c2c(F)c(F)c(F)c(F)c2F)cc1O` [Example 25, (R)-4-(N-(4-Cyclohexylbenzyl)-1-((pentafluorophenyl)sulfonyl)pyrrolidine-2-carboxamido)-2-hydroxybenzoic acid], for which the results for the cell viability result in data set [1], in [2] and in data set [4] were “only weakly or not inhibited”, “suppressed the viability” and “suppressed the viability”, respectively. Besides, the pY705Stat3 levels entry is reported as “inhibited pY705Stat3 levels” in data set [3] (MDA-MB-231, 5 μM, 1 h treatment) and “only inhibited pY705Stat3 levels in MDA-MB-231” in data set [6] (MDA-MB-468, 5 μM, 1 h treatment (inhibition stated only for MDA-MB-231)). In addition, the IC50 in [5] (setting [14]) is 2.4 µM; in data set [5] (setting [15]) it was 2.4 ± 0.4 µM.

As to `C[C@H](C(=O)N(Cc1ccc(C2CCCCC2)cc1)c1ccc(C(=O)O)cc1F)N(C)S(=O)(=O)c1c(F)c(F)c(F)c(F)c1F` [Example 37, (R)-4-(N-(4-cyclohexylbenzyl)-2-((2,3,4,5,6-pentafluoro-N-methylphenyl)sulfonamido)propanamido)-3-fluorobenzoic acid], the “toxicity to MCF7 cells” value in data set [1] (10 μM) is reported as “general toxicity”. Moreover, the values for the cell viability entry in [1], in data set [2] and in data set [4] were “only weakly or not inhibited”, “suppressed the viability” and “suppressed the viability”, respectively. The “effect on Stat1 DNA-binding activity” value in data set [7] was “no measureable effect”. The IC50 in [8] (Homo sapiens, MDA-MB-231, 72 h) amounted to 3.9 µM; in [9], 5.1 µM; in data set [5] (setting [14]), 1.8 ± 0.94 µM. The “cell growth, time- or dose-dependent” value in data set [8] (printed as MDA-MB-231 and/or MDA-MB-468, trypan blue exclusion, 3 μM Example 37 or 5 μM Example 25, 0-96 h) was “suppressed”. Moreover, the “constitutive pY705Stat3 levels” value in [3] (MDA-MB-231, treatment for 1 h) was “strongly inhibited”; in data set [6] (MDA-MB-468, treatment for 1 h), “strongly inhibited”. The “effect on Stat5 DNA-binding activity” value in data set [10] is listed as “no measureable effect”.

`C[C@H](C(=O)N(Cc1ccc(C2CCCCC2)cc1)c1ccc(C(=O)O)cc1Cl)N(C)S(=O)(=O)c1c(F)c(F)c(F)c(F)c1F` [Example 40, (R)-3-chloro-4-(N-(4-cyclohexylbenzyl)-2-((2,3,4,5,6-pentafluoro-N-methylphenyl)sulfonamido)propanamido)benzoic acid]: the “effect on pERK1/2” value in data set [11] is given as “little effect”. Besides, in [12], the “effect on pSrc” value was “little effect”. Also, in data set [13], the “effect on pJak2” value is recorded as “little effect”.

As to `Cc1cc(C(=O)O)ccc1N(Cc1ccc(C2CCCCC2)cc1)C(=O)[C@@H](C)N(C)S(=O)(=O)c1c(F)c(F)c(F)c(F)c1F` [Example 42, (R)-4-(N-(4-cyclohexylbenzyl)-2-((2,3,4,5,6-pentafluoro-N-methylphenyl)sulfonamido)propanamido)-3-methylbenzoic acid], the “effect on pERK1/2” value in data set [11] was “little effect”. Besides, in data set [12], the “effect on pSrc” value is given as “little effect”. In data set [13], the “effect on pJak2” value is recorded as “little effect”.

Consider `C[C@H](C(=O)N(Cc1ccc(C2CCOCC2)cc1)c1ccc(C(=O)O)c(O)c1)N(C)S(=O)(=O)c1c(F)c(F)c(F)c(F)c1F` [Example 57, (R)-2-Hydroxy-4-(2-((2,3,4,5,6-pentafluoro-N-methylphenyl)sulfonamido)-N-(4-(tetrahydro-2H-pyran-4-yl)benzyl)propanamido)benzoic acid], for which, in data set [5] (setting [15]), the IC50 was determined as 5 ± 0.8 µM. Also, the “effect on Stat5 DNA-binding activity” value in [10] is “minimum effect”.
